# Assay results as given in patent US20260365682A1, “MODULATORS OF TNF-ALPHA ACTIVITY” (Forward Therapeutics, Inc., priority 2022, published 2026).
# Target: T1, TNF-α (Homo sapiens, UniProt P01375)
# T1 construct: purchased R&D 210-TA-020/CF
# Experiment: TNF-α Induced HEK Blue Cellular Assay (secreted alkaline phosphatase expression, QUANTI-Blue)
# Type: cell-based
# Details: HEK Blue TNFα reporter cells; TNF-α 100 μg/ml; 24 hrs at 37° C.; inhibition of secreted alkaline phosphatase; read-out: IC50 value
# How it was run: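 HEK Blue TNFα reporter cells (10,000/well) in DMEM with 10% FBS received compound ([…] to 0.5 nM final) and TNF-α at […] final for 24 h at 37° C. Secreted alkaline phosphatase read with QUANTI-Blue at 620 nm. IC50 came from a 4-parameter logistic fit after normalising to unstimulated and stimulated DMSO controls.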
# T1 sequence (P01375 77-233 limits assumed): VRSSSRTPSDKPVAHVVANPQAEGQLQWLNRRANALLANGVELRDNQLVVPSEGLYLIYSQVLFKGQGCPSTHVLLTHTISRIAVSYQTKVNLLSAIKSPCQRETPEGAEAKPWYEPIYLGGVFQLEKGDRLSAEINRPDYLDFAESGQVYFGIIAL
row,SMILES,IC50
1,"Cn1cc(C#Cc2ccc3nc4n(c3c2)[C@@H]2C[C@H]4NC(=O)c3cccc(OC(F)F)c32)cn1 [Example 2, (1R,11R)-18-(difluoromethoxy)-5-[2-(1-methylpyrazol-4-yl)ethynyl]-2,9,12-triazapentacyclo[9.8.1.0^∧{2,10}.0^∧{3,8}. 0^∧{14,19}]icosa-3(8),4,6,9,14(19),15,17-heptaen-13-one]",< 0.1 µM
2,"[2H]C([2H])([2H])N1C(=O)c2cccc(OC(F)F)c2[C@H]2C[C@@H]1c1nc3ccc(C#Cc4cnc(P(C)(C)=O)nc4)cc3n12 [Example 100, (7R,14R)-1-(difluoromethoxy)-11-((2-(dimethylphosphoryl)pyrimidin-5-yl)ethynyl)-6-(methyl-d3)-6,7-dihydro-7,14-methanobenzo[f]benzo[4,5]imidazo[1,2-a][1,4]diazocin-5(14H)-one]",< 0.1 µM
3,"[2H]C([2H])([2H])N1C(=O)c2cccc(OC(F)F)c2[C@H]2C[C@@H]1c1nc3ccc(C#CC4(C)COC4)c(F)c3n12 [Example 146, (7R,14R)-1-(difluoromethoxy)-12-fluoro-6-(methyl-d3)-11-((3-methyloxetan-3-yl)ethynyl)-6,7-dihydro-7,14-methanobenzo[f]benzo[4,5]imidazo[1,2-a][1,4]diazocin-5(14H)-one]",0.1 to 1 µM
4,"[2H]C([2H])([2H])N1C(=O)c2cccc(OC(F)F)c2[C@H]2C[C@@H]1c1nc3ccc(C#C[C@@H]4CCCN4)cc3n12 [Example 59, (7R,14R)-1-(difluoromethoxy)-6-(methyl-d3)-11-(((S)-pyrrolidin-2-yl)ethynyl)-6,7-dihydro-7,14-methanobenzo[f]benzo[4,5]imidazo[1,2-a][1,4]diazocin-5(14H)-one]",10 to 30 µM
5,"[2H]C([2H])([2H])N1C(=O)c2cccc(OC(F)F)c2[C@H]2C[C@@H]1c1nc3ccc(C#CCN(C)CC)cc3n12 [Example 67, (7R,14R)-1-(difluoromethoxy)-11-(3-(ethyl(methyl)amino)prop-1-yn-1-yl)-6-(methyl-d3)-6,7-dihydro-7,14-methanobenzo[f]benzo[4,5]imidazo[1,2-a][1,4]diazocin-5(14H)-one]",0.1 to 1 µM
6,"[2H]C([2H])([2H])N1C(=O)c2cccc(OC(F)F)c2[C@H]2C[C@@H]1c1nc3ccc(C#CCCC(C)(C)O)cc3n12 [Example 93, (7R,14R)-1-(difluoromethoxy)-11-(5-hydroxy-5-methylhex-1-yn-1-yl)-6-(methyl-d3)-6,7-dihydro-7,14-methanobenzo[f]benzo[4,5]imidazo[1,2-a][1,4]diazocin-5(14H)-one]",< 0.1 µM
7,"[2H]C([2H])([2H])N1C(=O)c2cccc(OC(F)F)c2[C@H]2C[C@@H]1c1nc3ccc(C#CC4CCN(C(C)=O)CC4)cc3n12 [Example 173, (7R,14R)-11-((1-acetylpiperidin-4-yl)ethynyl)-1-(difluoromethoxy)-6-(methyl-d3)-6,7-dihydro-7,14-methanobenzo[f]benzo[4,5]imidazo[1,2-a][1,4]diazocin-5(14H)-one]",< 0.1 µM
8,"[2H]C([2H])([2H])N1C(=O)c2cccc(OC(F)F)c2[C@H]2C[C@@H]1c1nc3ccc(C#CCCCN4CCOCC4)cc3n12 [Example 114, (7R,14R)-1-(difluoromethoxy)-6-(methyl-d3)-11-(5-morpholinopent-1-yn-1-yl)-6,7-dihydro-7,14-methanobenzo[f]benzo[4,5]imidazo[1,2-a][1,4]diazocin-5(14H)-one]",< 0.1 µM
9,"[2H]C([2H])([2H])N1C(=O)c2cccc(OC(F)F)c2[C@H]2C[C@@H]1c1nc3ccc(C#CCC(=O)OC)cc3n12 [Example 138, methyl 4-((7R,14R)-1-(difluoromethoxy)-6-(methyl-d3)-5-oxo-5,6,7,14-tetrahydro-7,14-methanobenzo[f]benzo[4,5]imidazo[1,2-a][1,4]diazocin-11-yl)but-3-ynoate]",10 to 30 µM
10,"[2H]C([2H])([2H])N1C(=O)c2cccc(OC(F)F)c2[C@H]2C[C@@H]1c1nc3ccc(C#CC4(CO)CC4)cc3n12 [Example 130, (7R,14R)-1-(difluoromethoxy)-11-((1-(hydroxymethyl)cyclopropyl)ethynyl)-6-(methyl-d3)-6,7-dihydro-7,14-methanobenzo[f]benzo[4,5]imidazo[1,2-a][1,4]diazocin-5(14H)-one]",0.1 to 1 µM
11,"[2H]C([2H])([2H])N1C(=O)c2cccc(OC(F)F)c2[C@H]2C[C@@H]1c1nc3ccc(C#CC4(C)CN(C(=O)C5CC5)C4)cc3n12 [Example 161, (7R,14R)-11-((1-(cyclopropanecarbonyl)-3-methylazetidin-3-yl)ethynyl)-1-(difluoromethoxy)-6-(methyl-d3)-6,7-dihydro-7,14-methanobenzo[f]benzo[4,5]imidazo[1,2-a][1,4]diazocin-5(14H)-one]",< 0.1 µM
12,"[2H]C([2H])([2H])N1C(=O)c2cccc(OC(F)F)c2[C@H]2C[C@@H]1c1nc3ccc(C#CC4CN(C(=O)C5CC5)C4)cc3n12 [Example 127, (7R,14R)-11-((1-(cyclopropanecarbonyl)azetidin-3-yl)ethynyl)-1-(difluoromethoxy)-6-(methyl-d3)-6,7-dihydro-7,14-methanobenzo[f]benzo[4,5]imidazo[1,2-a][1,4]diazocin-5(14H)-one]",< 0.1 µM
13,"CN1C(=O)c2cccc(OC(F)F)c2[C@H]2C[C@@H]1c1nc3ccc(C#Cc4cnn(CCO)c4)cc3n12 [Example 5, (1R,11R)-18-(difluoromethoxy)-5-{2-[1-(2-hydroxyethyl)pyrazol-4-yl]ethynyl}-12-methyl-2,9,12-triazapentacyclo[9.8.1.0^{2,10}.0^{3,8}.0^{14,19}]icosa-3(8),4,6,9,14(19),15,17-heptaen-13-one]",< 0.1 µM
14,"[2H]C([2H])([2H])N1C(=O)c2cccc(OC(F)F)c2[C@H]2C[C@@H]1c1nc3ccc(C#CCOCC)cc3n12 [Example 43, (7R,14R)-1-(difluoromethoxy)-11-(3-ethoxyprop-1-yn-1-yl)-6-(methyl-d3)-6,7-dihydro-7,14-methanobenzo[f]benzo[4,5]imidazo[1,2-a][1,4]diazocin-5(14H)-one]",< 0.1 µM

# The remaining lines, values ahead:
row,IC50,SMILES
1,0.1 to 1 µM,"[2H]C([2H])([2H])N1C(=O)c2cccc(OC(F)F)c2[C@H]2C[C@@H]1c1nc3ccc(C#CCN4CCOCC4)cc3n12 [Example 229, (7R,14R)-1-(difluoromethoxy)-6-(methyl-d3)-11-(3-morpholinoprop-1-yn-1-yl)-6,7-dihydro-7,14-methanobenzo[f]benzo[4,5]imidazo[1,2-a][1,4]diazocin-5(14H)-one]"
2,0.1 to 1 µM,"[2H]C([2H])([2H])N1C(=O)c2cccc(OC(F)F)c2[C@H]2C[C@@H]1c1nc3ccc(C#CC4(C)CN(C(=O)C5CC5(F)F)C4)cc3n12 (stereo partly drawn) [Example 210, (7R,14R)-11-((1-(2,2-difluorocyclopropane-1-carbonyl)-3-methylazetidin-3-yl)ethynyl)-1-(difluoromethoxy)-6-(methyl-d3)-6,7-dihydro-7,14-methanobenzo[f]benzo[4,5]imidazo[1,2-a][1,4]diazocin-5(14H)-one]"
3,< 0.1 µM,"[2H]C([2H])([2H])N1C(=O)c2cccc(OC(F)F)c2[C@H]2C[C@@H]1c1nc3ccc(C#CCCN4CC[C@@H](F)C4)cc3n12 [Example 227, (7R,14R)-1-(difluoromethoxy)-11-(4-((R)-3-fluoropyrrolidin-1-yl)but-1-yn-1-yl)-6-(methyl-d3)-6,7-dihydro-7,14-methanobenzo[f]benzo[4,5]imidazo[1,2-a][1,4]diazocin-5(14H)-one]"
4,< 0.1 µM,"[2H]C([2H])([2H])N1C(=O)c2cccc(OC(F)F)c2[C@H]2C[C@@H]1c1nc3ccc(C#CCN4CCC(F)(F)C4)cc3n12 [Example 230, (7R,14R)-1-(difluoromethoxy)-11-(3-(3,3-difluoropyrrolidin-1-yl)prop-1-yn-1-yl)-6-(methyl-d3)-6,7-dihydro-7,14-methanobenzo[f]benzo[4,5]imidazo[1,2-a][1,4]diazocin-5(14H)-one]"
5,< 0.1 µM,"[2H]C([2H])([2H])N1C(=O)c2cccc(OC(F)F)c2[C@H]2C[C@@H]1c1nc3ccc(C#CC4CCN(C5CC5)C4)cc3n12 (stereo partly drawn) [Example 234, (7R,14R)-11-((1-cyclopropylpyrrolidin-3-yl)ethynyl)-1-(difluoromethoxy)-6-(methyl-d3)-6,7-dihydro-7,14-methanobenzo[f]benzo[4,5]imidazo[1,2-a][1,4]diazocin-5(14H)-one]"
6,< 0.1 µM,"[2H]C([2H])([2H])N1C(=O)c2cccc(OC(F)F)c2[C@H]2C[C@@H]1c1nc3ccc(C#CC4(C)CCCN(C(C)=O)C4)cc3n12 (stereo partly drawn) [Example 225, (7R,14R)-11-((1-acetyl-3-methylpiperidin-3-yl)ethynyl)-1-(difluoromethoxy)-6-(methyl-d3)-6,7-dihydro-7,14-methanobenzo[f]benzo[4,5]imidazo[1,2-a][1,4]diazocin-5(14H)-one]"
7,< 0.1 µM,"[2H]C([2H])([2H])N1C(=O)c2cccc(OC(F)F)c2[C@H]2C[C@@H]1c1nc3ccc(C#CC(C)CCO)cc3n12 (single isomer, unassigned) [Example 239, (7R,14R)-1-(difluoromethoxy)-11-((S or R)-5-hydroxy-3-methylpent-1-yn-1-yl)-6-(methyl-d3)-6,7-dihydro-7,14-methanobenzo[f]benzo[4,5]imidazo[1,2-a][1,4]diazocin-5(14H)-one]"
8,10 to 30 µM,"[2H]C([2H])([2H])N1C(=O)c2cccc(OC(F)F)c2[C@H]2C[C@@H]1c1nc3ccc(C#CC4(C)CCN(C(=O)C(C)(C)O)C4)cc3n12 (stereo partly drawn) [Example 192, (7R,14R)-1-(difluoromethoxy)-11-((1-(2-hydroxy-2-methylpropanoyl)-3-methylpyrrolidin-3-yl)ethynyl)-6-(methyl-d3)-6,7-dihydro-7,14-methanobenzo[f]benzo[4,5]imidazo[1,2-a][1,4]diazocin-5(14H)-one]"
